What was measured:
Assay in all cases: Kinase selectivity, scanMAX Kinase assay panel (DiscoverX), % control at 1 uM
Format in all cases: binding
[1] = molecular target: T1, scanMAX Kinase assay panel (Homo sapiens, UniProt Q9NRM7); conditions: LATS2; 1 uM; read-out: Percent Control (%)
T1 construct: purchased DiscoverX
T1 sequence (Q9NRM7 1-1088): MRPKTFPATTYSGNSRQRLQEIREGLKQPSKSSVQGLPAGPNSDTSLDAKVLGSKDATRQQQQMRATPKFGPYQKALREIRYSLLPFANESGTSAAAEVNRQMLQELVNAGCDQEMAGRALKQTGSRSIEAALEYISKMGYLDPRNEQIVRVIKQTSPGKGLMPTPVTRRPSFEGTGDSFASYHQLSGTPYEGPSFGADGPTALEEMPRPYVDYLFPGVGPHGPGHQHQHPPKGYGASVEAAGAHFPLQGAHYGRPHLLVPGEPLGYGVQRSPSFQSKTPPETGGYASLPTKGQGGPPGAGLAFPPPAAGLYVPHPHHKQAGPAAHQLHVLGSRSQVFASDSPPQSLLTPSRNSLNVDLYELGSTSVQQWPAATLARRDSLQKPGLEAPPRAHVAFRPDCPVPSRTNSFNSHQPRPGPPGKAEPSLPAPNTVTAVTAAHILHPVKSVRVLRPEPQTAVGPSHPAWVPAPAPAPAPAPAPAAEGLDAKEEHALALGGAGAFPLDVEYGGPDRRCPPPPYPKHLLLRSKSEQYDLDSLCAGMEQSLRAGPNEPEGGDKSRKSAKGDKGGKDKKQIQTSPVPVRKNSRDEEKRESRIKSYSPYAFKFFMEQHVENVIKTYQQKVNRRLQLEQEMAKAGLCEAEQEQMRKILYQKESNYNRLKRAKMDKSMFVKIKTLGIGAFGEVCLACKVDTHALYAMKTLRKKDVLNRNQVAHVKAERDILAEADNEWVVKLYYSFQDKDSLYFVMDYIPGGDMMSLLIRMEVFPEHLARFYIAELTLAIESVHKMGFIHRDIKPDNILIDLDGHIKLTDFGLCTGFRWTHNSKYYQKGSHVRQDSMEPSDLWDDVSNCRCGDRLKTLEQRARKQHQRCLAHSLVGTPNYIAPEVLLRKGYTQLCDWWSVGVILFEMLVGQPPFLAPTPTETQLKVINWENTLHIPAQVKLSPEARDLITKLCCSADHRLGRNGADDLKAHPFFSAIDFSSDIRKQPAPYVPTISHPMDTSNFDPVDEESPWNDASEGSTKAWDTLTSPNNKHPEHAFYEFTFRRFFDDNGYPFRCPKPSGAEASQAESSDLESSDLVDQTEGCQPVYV
How it was run: (§1)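 Binding across the scanMAX kinase panel was tested at 1 uM compound. % control = (compound − positive control)/(negative control − positive control) × 100; below 35 counted as active.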

[2] = molecular target: T2, scanMAX Kinase assay panel (Homo sapiens, UniProt P30530); conditions: AXL; 1 uM; read-out: Percent Control (%)
T2 construct: purchased DiscoverX
T2 sequence (P30530 26-894): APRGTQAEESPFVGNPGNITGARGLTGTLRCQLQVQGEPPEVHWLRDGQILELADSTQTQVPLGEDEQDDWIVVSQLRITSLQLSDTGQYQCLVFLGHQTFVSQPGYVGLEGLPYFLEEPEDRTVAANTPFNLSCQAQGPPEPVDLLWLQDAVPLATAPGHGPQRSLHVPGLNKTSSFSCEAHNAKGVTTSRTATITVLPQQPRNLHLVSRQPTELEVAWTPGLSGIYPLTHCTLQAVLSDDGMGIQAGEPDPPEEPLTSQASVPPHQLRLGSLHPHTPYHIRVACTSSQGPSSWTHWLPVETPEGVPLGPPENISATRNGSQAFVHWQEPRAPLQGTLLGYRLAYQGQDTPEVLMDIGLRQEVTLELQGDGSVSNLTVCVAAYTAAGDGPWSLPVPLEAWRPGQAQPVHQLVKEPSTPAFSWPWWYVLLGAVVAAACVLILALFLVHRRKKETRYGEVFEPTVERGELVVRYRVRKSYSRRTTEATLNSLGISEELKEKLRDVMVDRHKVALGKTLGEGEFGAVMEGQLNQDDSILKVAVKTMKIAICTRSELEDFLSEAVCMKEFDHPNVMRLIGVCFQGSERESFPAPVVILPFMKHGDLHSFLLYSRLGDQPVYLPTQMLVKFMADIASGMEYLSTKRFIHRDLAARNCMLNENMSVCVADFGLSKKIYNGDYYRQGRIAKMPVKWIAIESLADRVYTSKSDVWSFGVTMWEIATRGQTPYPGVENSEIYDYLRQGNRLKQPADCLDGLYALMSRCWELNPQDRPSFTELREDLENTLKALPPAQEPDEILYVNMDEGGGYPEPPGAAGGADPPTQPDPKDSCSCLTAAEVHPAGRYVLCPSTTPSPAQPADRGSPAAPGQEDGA
How it was run: as §1

[3] = molecular target: T3, scanMAX Kinase assay panel (Homo sapiens, UniProt Q9UQB9); conditions: AURKC; 1 uM; read-out: Percent Control (%)
T3 construct: purchased DiscoverX
T3 sequence (Q9UQB9 1-309): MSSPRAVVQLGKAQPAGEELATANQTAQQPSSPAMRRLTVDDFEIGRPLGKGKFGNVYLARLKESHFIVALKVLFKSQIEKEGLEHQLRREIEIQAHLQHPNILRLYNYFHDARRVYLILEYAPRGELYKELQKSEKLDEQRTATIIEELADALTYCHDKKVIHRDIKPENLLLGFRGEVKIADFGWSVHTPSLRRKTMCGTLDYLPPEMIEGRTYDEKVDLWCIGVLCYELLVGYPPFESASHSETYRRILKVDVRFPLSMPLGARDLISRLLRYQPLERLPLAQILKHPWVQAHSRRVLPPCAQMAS
How it was run: as §1

| SMILES | remaining binding at 1 µM [1] | remaining binding at 1 µM [2] | remaining binding at 1 µM [3] |
| --- | --- | --- | --- |
| Cc1ccc(NC(=O)C2(C(=O)Nc3ccc(F)cc3)CC2)cc1C#Cc1cnc2c(Nc3cnn(C(C)C)c3)cccn12 [Example 78] | 100% | 93% | 88% |
| Cc1cn(-c2cc(NC(=O)c3ccc(C)c(C#Cc4cnc5c(Nc6cnn(C)c6)cccn45)c3)cc(C(F)(F)F)c2)cn1 [Example 12, 4-methyl-N-(3-(4-methyl-1H-imidazol-1-yl)-5-(trifluoromethyl)phenyl)-3-((8-((1-methyl-1H-pyrazol-4-yl)amino)imidazo[1,2-a]pyridin-3-yl)ethynyl)benzamide] | 98% | 48% | 48% |
| Cc1ccc(C(=O)Nc2ccc(CN3CCN(C)CC3)c(C(F)(F)F)c2)cc1C#Cc1cnc2c(Nc3cnn(C)c3)cccn12 [Example 1, 4-methyl-3-((8-((1-methyl-1H-pyrazol-4-yl)amino)imidazo[1,2-a]pyridin-3-yl)ethynyl)-N-(4-((4-methylpiperazin-1-yl)methyl)-3-(trifluoromethyl)phenyl)benzamide] | 67% | 2% | 1% |
